# Measured values: patent US11534457B2, “Use of dextran sulfate” (priority 2017, dated 2022)
# Marks after values point to notes of the source that are not given here.
# What was measured:
# [1] = tested on: severe traumatic brain injury (sTBI); assay: sTBI in rats, HPLC of free amino acids and amino group containing compounds in brain (Example 3); type: in vivo, Male Wistar rats
# [2] = tested on: BF4T system [bronchial epithelial cells and HDFn+(TNFα and IL-4)]; assay: BioMAP BF4T system; type: cell-based, Human
# From the text: In this study LMW-DS was characterized by profiling in the BioMAP® Diversity PLUS panel. The BioMAP® panel consists of human primary cell-based systems designed to model different aspects of the human body in an in vitro format. The 12 systems in the BioMAP® Diversity PLUS panel (Table 32) allow test agent characterization in an unbiased way across a broad set of systems modeling various human disease states. The BioMA®P systems are constructed with one or more primary cell types from healthy human donors, with stimuli, such as cytokines or growth factors, added to capture relevant signaling networks that naturally occur in human tissue or pathological conditions. […]
# Systems are derived from either single cell types or co-culture systems. […] Test agents prepared in either DMSO (small molecules; final concentration 0.1%) or PBS (biologics) are added at the indicated concentrations 1-hr before stimulation, and remain in culture for 24-hrs or as otherwise indicated (48-hrs, MyoF system; 72-hrs, BT system (soluble readouts); 168-hrs, BT system (secreted IgG)). […] Soluble factors from supernatants are quantified using either HTRF® detection, bead-based multiplex immunoassay or capture ELISA. Overt adverse effects of test agents on cell proliferation and viability (cytotoxicity) are detected by sulforhodamine B (SRB) staining, for adherent cells, and alamarBlue® reduction for cells in suspension. […]
# [3] = Acute phase 1: 15 mg/kg s.c. 30 min post-sTBI, sacrifice 2 days
# [4] = Acute phase 2: 15 mg/kg s.c. 30 min post-sTBI, sacrifice 7 days
# [5] = Chronic phase: 15 mg/kg s.c. 3 days post-sTBI, sacrifice 7 days
substance,measurement,setting,value
low molecular weight dextran sulfate [LMW-DS],"compounds of the methyl cycle (Met, L-Cystat, SAH)",[1]; 15 mg/kg s.c.,significant beneficial effects
same,sTBI-induced increase in brain glutamate (GLU),[1]; 15 mg/kg s.c. 30 min after sTBI,remarkable inhibition
same,brain glutamate (excitotoxicity marker),[1]; 15 mg/kg s.c. injected 3 days after sTBI,no efficacy
same,"ALA, cerebral concentration",[1]; [3],0.50 ± 0.12^a μmol/g (w.w.)
same,"ARG, cerebral concentration",[1]; [3],"0.13 ± 0.02^b,d μmol/g (w.w.)"
same,"ASN, cerebral concentration",[1]; [3],0.12 ± 0.02^i μmol/g (w.w.)
same,"ASP, cerebral concentration",[1]; [3],"2.40 ± 0.56^d,i μmol/g (w.w.)"
same,"CITR, cerebral concentration",[1]; [3],0.018 ± 0.004 µmol/g (w.w.)
same,"GABA, cerebral concentration",[1]; [3],1.43 ± 0.25^a μmol/g (w.w.)
same,"GLN, cerebral concentration",[1]; [3],4.78 ± 1.09^a μmol/g (w.w.)
same,"GLU, cerebral concentration",[1]; [3],9.81 ± 1.66^i μmol/g (w.w.)
same,"GLY, cerebral concentration",[1]; [3],"0.83 ± 0.25^a,c μmol/g (w.w.)"
same,"HIS, cerebral concentration",[1]; [3],0.068 ± 0.015^b μmol/g (w.w.)
same,"ILE, cerebral concentration",[1]; [3],0.038 ± 0.007 µmol/g (w.w.)
same,"L-Cystat, cerebral concentration",[1]; [3],"0.185 ± 0.031^b,c,i μmol/g (w.w.)"
same,"LEU, cerebral concentration",[1]; [3],"0.021 ± 0.005^a,c μmol/g (w.w.)"
same,"LYS, cerebral concentration",[1]; [3],"0.236 ± 0.057^b,d,h μmol/g (w.w.)"
same,"MET, cerebral concentration",[1]; [3],"0.016 ± 0.005^d,j μmol/g (w.w.)"
same,"ORN, cerebral concentration",[1]; [3],0.014 ± 0.007 µmol/g (w.w.)
same,"PHE, cerebral concentration",[1]; [3],"0.031 ± 0.011^b,d μmol/g (w.w.)"
same,"SAH, cerebral concentration",[1]; [3],"0.033 ± 0.008^b,c,j μmol/g (w.w.)"
same,"SER, cerebral concentration",[1]; [3],0.88 ± 0.25^a μmol/g (w.w.)
same,"TAU, cerebral concentration",[1]; [3],4.86 ± 0.85^b μmol/g (w.w.)
same,"THR, cerebral concentration",[1]; [3],0.92 ± 0.29^a μmol/g (w.w.)
same,"TRP, cerebral concentration",[1]; [3],"0.030 ± 0.007^b,dg,i μmol/g (w.w.)"
same,"TYR, cerebral concentration",[1]; [3],0.15 ± 0.03 µmol/g (w.w.)
same,"VAL, cerebral concentration",[1]; [3],0.042 ± 0.011 µmol/g (w.w.)
same,"ALA, cerebral concentration",[1]; [4],"0.52 ± 0.24^a,e μmol/g (w.w.)"
same,"ARG, cerebral concentration",[1]; [4],0.16 ± 0.03 µmol/g (w.w.)
same,"ASN, cerebral concentration",[1]; [4],0.13 ± 0.03^i μmol/g (w.w.)
same,"ASP, cerebral concentration",[1]; [4],"2.94 ± 0.98^f,j μmol/g (w.w.)"
same,"CITR, cerebral concentration",[1]; [4],0.018 ± 0.008 µmol/g (w.w.)
same,"GABA, cerebral concentration",[1]; [4],1.60 ± 0.24^a μmol/g (w.w.)
same,"GLN, cerebral concentration",[1]; [4],3.66 ± 0.41 µmol/g (w.w.)
same,"GLU, cerebral concentration",[1]; [4],"9.93 ± 1.56^e,i μmol/g (w.w.)"
same,"GLY, cerebral concentration",[1]; [4],"0.71 ± 0.16^f,i μmol/g (w.w.)"
same,"HIS, cerebral concentration",[1]; [4],0.055 ± 0.019 µmol/g (w.w.)
same,"ILE, cerebral concentration",[1]; [4],0.048 ± 0.017^a μmol/g (w.w.)
same,"L-Cystat, cerebral concentration",[1]; [4],"0.173 ± 0.038^b,f,i μmol/g (w.w.)"
same,"LEU, cerebral concentration",[1]; [4],0.018 ± 0.004 µmol/g (w.w.)
same,"LYS, cerebral concentration",[1]; [4],"0.32 ± 0.04^a,e,i μmol/g (w.w.)"
same,"MET, cerebral concentration",[1]; [4],"0.022 ± 0.006^b,e,i μmol/g (w.w.)"
same,"ORN, cerebral concentration",[1]; [4],0.011 ± 0.005 µmol/g (w.w.)
same,"PHE, cerebral concentration",[1]; [4],0.028 ± 0.010 µmol/g (w.w.)
same,"SAH, cerebral concentration",[1]; [4],"0.026 ± 0.010^f,i μmol/g (w.w.)"
same,"SER, cerebral concentration",[1]; [4],0.71 ± 0.28^b μmol/g (w.w.)
same,"TAU, cerebral concentration",[1]; [4],3.80 ± 1.19 µmol/g (w.w.)
same,"THR, cerebral concentration",[1]; [4],0.66 ± 0.23 µmol/g (w.w.)
same,"TRP, cerebral concentration",[1]; [4],0.015 ± 0.006 µmol/g (w.w.)
same,"TYR, cerebral concentration",[1]; [4],"0.172 ± 0.046^b,f μmol/g (w.w.)"
same,"VAL, cerebral concentration",[1]; [4],0.057 ± 0.017 µmol/g (w.w.)
same,"ALA, cerebral concentration",[1]; [5],"0.57 ± 0.28^a,e μmol/g (w.w.)"
same,"ARG, cerebral concentration",[1]; [5],0.14 ± 0.02 µmol/g (w.w.)
same,"ASN, cerebral concentration",[1]; [5],0.18 ± 0.02^a μmol/g (w.w.)
same,"ASP, cerebral concentration",[1]; [5],"4.46 ± 0.70^a,f μmol/g (w.w.)"
same,"CITR, cerebral concentration",[1]; [5],0.020 ± 0.006 µmol/g (w.w.)
same,"GABA, cerebral concentration",[1]; [5],1.85 ± 0.65^a μmol/g (w.w.)
same,"GLN, cerebral concentration",[1]; [5],3.98 ± 0.34 µmol/g (w.w.)
same,"GLU, cerebral concentration",[1]; [5],13.58 ± 1.28^a μmol/g (w.w.)
same,"GLY, cerebral concentration",[1]; [5],"1.05 ± 0.13^a,f μmol/g (w.w.)"
same,"HIS, cerebral concentration",[1]; [5],0.047 ± 0.021 µmol/g (w.w.)
same,"ILE, cerebral concentration",[1]; [5],0.041 ± 0.016^b μmol/g (w.w.)
same,"L-Cystat, cerebral concentration",[1]; [5],"0.26 ± 0.05^a,f μmol/g (w.w.)"
same,"LEU, cerebral concentration",[1]; [5],"0.024 ± 0.032^b,f μmol/g (w.w.)"
same,"LYS, cerebral concentration",[1]; [5],0.179 ± 0.036 µmol/g (w.w.)
same,"MET, cerebral concentration",[1]; [5],0.009 ± 0.004^b μmol/g (w.w.)
same,"ORN, cerebral concentration",[1]; [5],"0.017 ± 0.009^a,e μmol/g (w.w.)"
same,"PHE, cerebral concentration",[1]; [5],0.033 ± 0.011^b μmol/g (w.w.)
same,"SAH, cerebral concentration",[1]; [5],0.050 ± 0.013^a μmol/g (w.w.)
same,"SER, cerebral concentration",[1]; [5],"0.93 ± 0.27^a,e μmol/g (w.w.)"
same,"TAU, cerebral concentration",[1]; [5],4.49 ± 0.43^a μmol/g (w.w.)
same,"THR, cerebral concentration",[1]; [5],"0.75 ± 0.24^a,e μmol/g (w.w.)"
same,"TRP, cerebral concentration",[1]; [5],0.012 ± 0.007 µmol/g (w.w.)
same,"TYR, cerebral concentration",[1]; [5],0.21 ± 0.05^f μmol/g (w.w.)
same,"VAL, cerebral concentration",[1]; [5],0.040 ± 0.016^b μmol/g (w.w.)
same,Increased biomarker activity,[2]; BF4T system,Eot3
same,Eotaxin-3,[2]; lower concentrations only,Modestly increased
